Source: US12077503B2, “Substituted cyclic amides and their use as herbicides” (FMC CORPORATION, priority 2015, dated 2024)

Tests used:
Type in all cases: in vivo
[1] = system: velvetleaf (Abutilon theophrasti); test: Test G Post-Emergence Protocol; settings: Abutilon theophrasti, post-emergence, 312 h; for pest or weed control at 15.625 g/ha: 15.625 g ai/ha, evaluated after 13 days (100=total damage to plant; 0=no damage to plant), read-out: Velvetleaf damage rating; for pest or weed control at 62.5 g/ha: 62.5 g ai/ha, read-out: Velvetleaf damage rating (100=total damage to plant; 0=no damage to plant); for pest or weed control at 62.5 g/ha / pest or weed control at 250 g/ha: evaluated after 13 days; for pest or weed control at 250 g/ha: 250 g ai/ha, read-out: damage to plant, Velvetleaf (100=total damage to plant; 0=no damage to plant)
How it was run: (§1)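 Eight days post-sowing, plants received a spray of test compound (acetone/water 50:50, 0.5% Tween 20) at 15.625, 62.5 or 250 g/ha. Glasshouse regime thereafter: 24/16 °C, 14 h light, 65% humidity. Assessment after 13 days on a 0–100 damage scale.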

[2] = system: ivy-leaved morning glory (Ipomoea hederacea); test: Test G Post-Emergence Protocol; settings: Ipomoea, post-emergence, 312 h; for pest or weed control at 15.625 g/ha: 15.625 g ai/ha, evaluated after 13 days (100=total damage to plant; 0=no damage to plant), read-out: Morningglory, Ivy-leaved damage rating; for pest or weed control at 62.5 g/ha: 62.5 g ai/ha, read-out: Morningglory, Ivy-leaved damage rating (100=total damage to plant; 0=no damage to plant); for pest or weed control at 62.5 g/ha / pest or weed control at 250 g/ha: evaluated after 13 days; for pest or weed control at 250 g/ha: 250 g ai/ha, read-out: damage to plant, Morningglory, Ivy-leaved (100=total damage to plant; 0=no damage to plant)
How it was run: as §1

[3] = system: redroot pigweed (Amaranthus retroflexus); test: Test G Post-Emergence Protocol; settings: Amaranthus retroflexus, post-emergence, 312 h; for pest or weed control at 15.625 g/ha: 15.625 g ai/ha, evaluated after 13 days (100=total damage to plant; 0=no damage to plant), read-out: Pigweed, Redroot damage rating; for pest or weed control at 62.5 g/ha: 62.5 g ai/ha, read-out: Pigweed, Redroot damage rating (100=total damage to plant; 0=no damage to plant); for pest or weed control at 62.5 g/ha / pest or weed control at 250 g/ha: evaluated after 13 days; for pest or weed control at 250 g/ha: 250 g ai/ha, read-out: damage to plant, Pigweed, Redroot (100=total damage to plant; 0=no damage to plant)
How it was run: as §1

[4] = system: giant foxtail (Setaria faberi); test: Test G Post-Emergence Protocol; settings: Setaria faberi, post-emergence, 312 h; for pest or weed control at 15.625 g/ha: 15.625 g ai/ha, evaluated after 13 days (100=total damage to plant; 0=no damage to plant), read-out: Foxtail, Giant damage rating; for pest or weed control at 62.5 g/ha: 62.5 g ai/ha, read-out: Foxtail, Giant damage rating (100=total damage to plant; 0=no damage to plant); for pest or weed control at 62.5 g/ha / pest or weed control at 250 g/ha: evaluated after 13 days; for pest or weed control at 250 g/ha: 250 g ai/ha, read-out: damage to plant, Foxtail, Giant (100=total damage to plant; 0=no damage to plant)
How it was run: as §1

corn (Zea mays) [5] = test: Test G Post-Emergence Protocol; settings: Zea mays, post-emergence, 312 h; for plant injury at 15.625 g/ha: 15.625 g ai/ha, evaluated after 13 days (100=total damage to plant; 0=no damage to plant), read-out: Corn damage rating; for plant injury at 62.5 g/ha: 62.5 g ai/ha, read-out: Corn damage rating (100=total damage to plant; 0=no damage to plant); for plant injury at 62.5 g/ha / plant injury at 250 g/ha: evaluated after 13 days; for plant injury at 250 g/ha: 250 g ai/ha, read-out: damage to plant, Corn (100=total damage to plant; 0=no damage to plant)
How it was run: as §1

[6] = system: barnyardgrass (Echinochloa crus-galli); test: Test G Post-Emergence Protocol; settings: Echinochloa crus-galli, post-emergence, 312 h; for pest or weed control at 15.625 g/ha: 15.625 g ai/ha, evaluated after 13 days (100=total damage to plant; 0=no damage to plant), read-out: Barnyardgrass damage rating; for pest or weed control at 62.5 g/ha: 62.5 g ai/ha, read-out: Barnyardgrass damage rating (100=total damage to plant; 0=no damage to plant); for pest or weed control at 62.5 g/ha / pest or weed control at 250 g/ha: evaluated after 13 days; for pest or weed control at 250 g/ha: 250 g ai/ha, read-out: damage to plant, Barnyardgrass (100=total damage to plant; 0=no damage to plant)
How it was run: as §1

[7] = system: velvetleaf (Abutilon theophrasti); test: Test G Pre-Emergence Protocol; settings: Abutilon theophrasti, pre-emergence, 312 h, evaluated after 13 days; for pest or weed control at 15.625 g/ha: 15.625 g ai/ha; for pest or weed control at 15.625 g/ha / pest or weed control at 250 g/ha: read-out: Velvetleaf damage rating (100=total damage to plant; 0=no damage to plant); for pest or weed control at 62.5 g/ha: 62.5 g ai/ha, 100=total damage to plant, 0=no damage to plant, read-out: plant damage rating, Velvetleaf; for pest or weed control at 250 g/ha: 250 g ai/ha
How it was run: (§2)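 Glasshouse pre-emergence test: soil-sown seeds, sprayed after 1 d at 15.625, 62.5 or 250 g/ha. Conditions 24/16° C day/night, 14 h light, 65% humidity, watering twice daily. Rating 13 d post-spray (100 = total damage).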

[8] = system: ivy-leaved morning glory (Ipomoea hederacea); test: Test G Pre-Emergence Protocol; settings: Ipomoea, pre-emergence, 312 h, evaluated after 13 days; for pest or weed control at 15.625 g/ha: 15.625 g ai/ha, read-out: Morning-glory, Ivy-leaved damage rating (100=total damage to plant; 0=no damage to plant); for pest or weed control at 62.5 g/ha: 62.5 g ai/ha, 100=total damage to plant, 0=no damage to plant, read-out: plant damage rating, Morningglory, Ivy-leaved; for pest or weed control at 250 g/ha: 250 g ai/ha, read-out: Morningglory, Ivy-leaved damage rating (100=total damage to plant; 0=no damage to plant)
How it was run: as §2

[9] = system: redroot pigweed (Amaranthus retroflexus); test: Test G Pre-Emergence Protocol; settings: Amaranthus retroflexus, pre-emergence, 312 h, evaluated after 13 days; for pest or weed control at 15.625 g/ha: 15.625 g ai/ha; for pest or weed control at 15.625 g/ha / pest or weed control at 250 g/ha: read-out: Pigweed, Redroot damage rating (100=total damage to plant; 0=no damage to plant); for pest or weed control at 62.5 g/ha: 62.5 g ai/ha, 100=total damage to plant, 0=no damage to plant, read-out: plant damage rating, Pigweed, Redroot; for pest or weed control at 250 g/ha: 250 g ai/ha
How it was run: as §2

[10] = system: giant foxtail (Setaria faberi); test: Test G Pre-Emergence Protocol; settings: Setaria faberi, pre-emergence, 312 h, evaluated after 13 days; for pest or weed control at 15.625 g/ha: 15.625 g ai/ha; for pest or weed control at 15.625 g/ha / pest or weed control at 250 g/ha: read-out: Foxtail, Giant damage rating (100=total damage to plant; 0=no damage to plant); for pest or weed control at 62.5 g/ha: 62.5 g ai/ha, 100=total damage to plant, 0=no damage to plant, read-out: plant damage rating, Foxtail, Giant; for pest or weed control at 250 g/ha: 250 g ai/ha
How it was run: as §2

corn (Zea mays) [11] = test: Test G Pre-Emergence Protocol; settings: Zea mays, pre-emergence, 312 h, evaluated after 13 days; for plant injury at 15.625 g/ha: 15.625 g ai/ha; for plant injury at 15.625 g/ha / plant injury at 250 g/ha: read-out: Corn damage rating (100=total damage to plant; 0=no damage to plant); for plant injury at 62.5 g/ha: 62.5 g ai/ha, 100=total damage to plant, 0=no damage to plant, read-out: plant damage rating, Corn; for plant injury at 250 g/ha: 250 g ai/ha
How it was run: as §2

[12] = system: barnyardgrass (Echinochloa crus-galli); test: Test G Pre-Emergence Protocol; settings: Echinochloa crus-galli, pre-emergence, 312 h, evaluated after 13 days; for pest or weed control at 15.625 g/ha: 15.625 g ai/ha, read-out: Barnyard grass damage rating (100=total damage to plant; 0=no damage to plant); for pest or weed control at 62.5 g/ha: 62.5 g ai/ha, 100=total damage to plant, 0=no damage to plant, read-out: plant damage rating, Barnyardgrass; for pest or weed control at 250 g/ha: 250 g ai/ha, read-out: Barnyardgrass damage rating (100=total damage to plant; 0=no damage to plant)
How it was run: as §2

Row | Compound | pest or weed control at 15.625 g/ha [1] [%] | pest or weed control at 62.5 g/ha [1] [%] | pest or weed control at 250 g/ha [1] [%] | pest or weed control at 15.625 g/ha [2] [%] | pest or weed control at 62.5 g/ha [2] [%] | pest or weed control at 250 g/ha [2] [%] | pest or weed control at 15.625 g/ha [3] [%] | pest or weed control at 62.5 g/ha [3] [%] | pest or weed control at 250 g/ha [3] [%] | pest or weed control at 15.625 g/ha [4] [%] | pest or weed control at 62.5 g/ha [4] [%] | pest or weed control at 250 g/ha [4] [%] | plant injury at 15.625 g/ha (corn (Zea mays) [5]) [%] | plant injury at 62.5 g/ha (corn (Zea mays) [5]) [%] | plant injury at 250 g/ha (corn (Zea mays) [5]) [%] | pest or weed control at 15.625 g/ha [6] [%] | pest or weed control at 62.5 g/ha [6] [%] | pest or weed control at 250 g/ha [6] [%] | pest or weed control at 15.625 g/ha [7] [%] | pest or weed control at 62.5 g/ha [7] [%] | other results
1 | CN1C[C@@H](c2ccc(C(F)(F)F)cc2)[C@H](C(=O)Nc2cccc(C(F)(F)F)c2[N+](=O)[O-])C1=O (racemic) [Compound 1594] | 0 | 0 | 0 | 0 | 0 | 0 | 0 | 0 | 0 | 0 | 20 | 20 | 0 | 0 | 0 | 0 | 20 | 20 | 0 | 0 | pest or weed control at 250 g/ha [7]: 0%; pest or weed control at 15.625 g/ha [8]: 0%; pest or weed control at 62.5 g/ha [8]: 0%; pest or weed control at 250 g/ha [8]: 0%; pest or weed control at 15.625 g/ha [9]: 0%; pest or weed control at 62.5 g/ha [9]: 0%; pest or weed control at 250 g/ha [9]: 0%; pest or weed control at 15.625 g/ha [10]: 0%; pest or weed control at 62.5 g/ha [10]: 40%; pest or weed control at 250 g/ha [10]: 30%; plant injury at 15.625 g/ha (corn (Zea mays) [11]): 0%; plant injury at 62.5 g/ha (corn (Zea mays) [11]): 10%; plant injury at 250 g/ha (corn (Zea mays) [11]): 10%; pest or weed control at 15.625 g/ha [12]: 0%; pest or weed control at 62.5 g/ha [12]: 20%; pest or weed control at 250 g/ha [12]: 20%
2 | CN1C[C@H](c2ccc(C(F)F)cc2)[C@@H](C(=O)Nc2ccccc2F)C1=O (racemic) [Compound 1454] | 0 | 0 | 10 | 10 | 10 | 10 | 0 | 20 | 20 | 30 | 60 | 60 | 10 | 20 | 30 | 0 | 20 | 20 | 0 | 20 | pest or weed control at 250 g/ha [7]: 60%; pest or weed control at 15.625 g/ha [8]: 20%; pest or weed control at 62.5 g/ha [8]: 10%; pest or weed control at 250 g/ha [8]: 10%; pest or weed control at 15.625 g/ha [9]: 0%; pest or weed control at 62.5 g/ha [9]: 0%; pest or weed control at 250 g/ha [9]: 70%; pest or weed control at 15.625 g/ha [10]: 50%; pest or weed control at 62.5 g/ha [10]: 70%; pest or weed control at 250 g/ha [10]: 90%; plant injury at 15.625 g/ha (corn (Zea mays) [11]): 0%; plant injury at 62.5 g/ha (corn (Zea mays) [11]): 10%; plant injury at 250 g/ha (corn (Zea mays) [11]): 60%; pest or weed control at 15.625 g/ha [12]: 20%; pest or weed control at 62.5 g/ha [12]: 60%; pest or weed control at 250 g/ha [12]: 70%
3 | CN1C[C@@H](c2ccc(C(F)(F)F)cc2)[C@H](C(=O)Nc2ccc(Cl)nc2)C1=O (racemic) [Compound 1525] | 0 | 0 | 0 | 0 | 0 | 20 | 0 | 0 | 0 | 0 | 0 | 10 | 0 | 0 | 10 | 0 | 0 | 0 | 0 | 0 | pest or weed control at 250 g/ha [7]: 0%; pest or weed control at 15.625 g/ha [8]: 0%; pest or weed control at 62.5 g/ha [8]: 0%; pest or weed control at 250 g/ha [8]: 0%; pest or weed control at 15.625 g/ha [9]: 0%; pest or weed control at 62.5 g/ha [9]: 0%; pest or weed control at 250 g/ha [9]: 0%; pest or weed control at 15.625 g/ha [10]: 0%; pest or weed control at 62.5 g/ha [10]: 10%; pest or weed control at 250 g/ha [10]: 30%; plant injury at 15.625 g/ha (corn (Zea mays) [11]): 0%; plant injury at 62.5 g/ha (corn (Zea mays) [11]): 0%; plant injury at 250 g/ha (corn (Zea mays) [11]): 0%; pest or weed control at 15.625 g/ha [12]: 0%; pest or weed control at 62.5 g/ha [12]: 0%; pest or weed control at 250 g/ha [12]: 40%
